Test results as given in patent publication US8367666B2 (priority 2004, dated 2013).
Like-named read-outs stand apart in the source and are kept apart here.

Experiments:
[1] = system: scratching action induced by Compound 48/80; assay: Anti-pruritic activity test by application (Compound 48/80 scratching); format: in vivo, mouse (Crj:CD-1 (ICR)); conditions: topical, read-out: Itching inhibition ratio % (Concentration %)
Method: 1) Preparation of the compound and the reagent: The compound being tested was dissolved in acetone (SIGMA). Compound 48/80 (SIGMA) was dissolved in physiological saline (m by Otsuka Pharmaceutical Co., Ltd.) so as to be 60 μg/mL.
2) Animals: Female Crj: CD-1 (ICR) mice of 6 to 10 age in week (Japan Charles Liver) were used as laboratory animals. The animals were fed in the barrier breeding room where […] in room temperature, 30 to 70% in humidity, and the light and shade condition existed every 12 hours and feed (CE-2: Japan Crea) and the drinking water were freely taken. The hair of dorsa (from the cervical region of the back to the center of the back) of the animals were cut with a hair clipper two days or more before the anti-pruritic activity is evaluated, those with no wound, rubefaction, and thickening of the skin on the dehaired part were chosen and supplied to the experiment on the day of the evaluation. 3) Evaluation procedures: The acetone solution of the compound being tested was applied by 50 μL on the dehaired parts of the mice with a pipeter. On the mice of the control group, 50 μL of acetone was applied. The 15 minutes later, 50 μL (corresponding to 3 μg) of Compound 48/80 solution was injected intradermally in the compound applied parts with the use of a injector (Terumo Corporation), the mice were individually put in five observation cages made of acrylate resin at once, and the scratching action (action of scratching the injection part by the hind leg) frequency during 30 minutes was measured. The evaluation was carried out in one group of 5 to 7 mice. 4) Data processing: The experiment results were shown by the mean values. The test of the significant difference of the compound applying group to the control group was conducted with Welch's t-test, and p<0.05 was assumed to be significant.

CB1 receptor [2] = biological target: T1, CB1 receptor (Homo sapiens, UniProt P21554); assay: Human cannabinoid receptor bonding inhibition test ([3H]CP55940), CB1; format: binding; parameters: expressed in transfected cells; membrane fraction
T1 sequence (P21554 whole entry): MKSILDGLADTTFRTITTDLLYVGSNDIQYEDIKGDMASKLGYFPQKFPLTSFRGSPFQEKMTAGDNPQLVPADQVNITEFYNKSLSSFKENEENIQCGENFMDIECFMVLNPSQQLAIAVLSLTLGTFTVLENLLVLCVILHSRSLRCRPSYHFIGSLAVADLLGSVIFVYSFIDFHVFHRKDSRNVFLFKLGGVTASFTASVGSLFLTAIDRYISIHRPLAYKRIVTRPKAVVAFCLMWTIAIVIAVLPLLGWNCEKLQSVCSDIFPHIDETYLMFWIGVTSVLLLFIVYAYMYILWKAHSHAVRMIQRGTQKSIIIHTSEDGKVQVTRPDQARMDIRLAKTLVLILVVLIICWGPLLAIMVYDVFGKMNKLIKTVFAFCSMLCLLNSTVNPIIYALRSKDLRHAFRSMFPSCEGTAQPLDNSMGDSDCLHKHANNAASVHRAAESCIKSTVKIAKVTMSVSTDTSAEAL

CB2 receptor [3] = biological target: T2, CB2 receptor (Homo sapiens, UniProt P34972); assay: Human cannabinoid receptor bonding inhibition test ([3H]CP55940), CB2; format: binding; parameters: expressed in transfected cells; membrane fraction
T2 sequence (P34972 whole entry): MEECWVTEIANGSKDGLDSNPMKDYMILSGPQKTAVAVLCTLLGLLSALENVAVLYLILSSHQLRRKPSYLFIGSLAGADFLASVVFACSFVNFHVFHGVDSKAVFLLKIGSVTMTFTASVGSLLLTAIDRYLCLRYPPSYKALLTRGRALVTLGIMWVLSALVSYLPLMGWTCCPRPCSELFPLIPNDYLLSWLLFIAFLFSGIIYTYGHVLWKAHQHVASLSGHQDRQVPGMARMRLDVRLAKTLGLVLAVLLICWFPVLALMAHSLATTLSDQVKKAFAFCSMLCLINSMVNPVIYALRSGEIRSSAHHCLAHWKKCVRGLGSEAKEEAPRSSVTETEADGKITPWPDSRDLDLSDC

CB1 receptor [4] = biological target: T1, CB1 receptor; assay: cAMP formation inhibition experiment through a cannabinoid receptor (forskolin stimulation), CB1; format: cell-based; parameters: expressed in transfected cells; host or cells: CHO cells
Method: A compound being tested was added in the CHO cell which had mad human CB1 or CB2 receptor reveal and incubated for 15 minutes, and then forskolin (the final concentration 4 μM, and manufactured by SIGMA Corp.) was added and the mixture was incubated for 20 minutes. After the reaction had been stopped by adding 1M hydrochloric acid, the amount of cAMP in the supernatant was measured with the use of Cyclic AMP kit (made by the CIS Diagnostic Corp.).

CB2 receptor [5] = biological target: T2, CB2 receptor; assay: cAMP formation inhibition experiment through a cannabinoid receptor (forskolin stimulation), CB2; format: cell-based; parameters: expressed in transfected cells; host or cells: CHO cells
[6] = [3H]CP55940 0.5 nM, membrane preparation of CHO cells expressing CB1, Ki calculated from IC50, read-out: Binding activity (nM) CB1
[7] = read-out: Agonist activity (nM) CB1
[8] = [3H]CP55940 0.5 nM, membrane preparation of CHO cells expressing CB2, Ki calculated from IC50, read-out: Binding activity (nM) CB2

Structure (SMILES)	inhibition in vivo at 1 % ([1]; Mus musculus) [%]	Ki (CB1 receptor [2]; [6]) [nM]	Ki (CB2 receptor [3]) [nM]	IC50 (CB1 receptor [4]) [nM]	IC50 (CB2 receptor [5]) [nM]	inhibition in vivo at 0.5 % ([1]; Mus musculus) [%]	Ki (CB1 receptor [2]) [nM]	IC50 (CB1 receptor [4]; [7]) [nM]	inhibition in vivo at 3 % ([1]; Mus musculus) [%]	inhibition in vivo at 2 % ([1]; Mus musculus) [%]	Ki (CB2 receptor [3]; [8]) [nM]	inhibition in vivo at 3 % ([1]; applied as acetone solution 50 μL, concentration 3.0%, mouse, Compound 48/80) [%]	IC50 (CB1 receptor [4]; inhibition of forskolin (4 μM)-stimulated cAMP formation, CHO cells expressing human CB1, read-out: Agonist activity (nM) CB1) [nM]	IC50 (CB2 receptor [5]; inhibition of forskolin (4 μM)-stimulated cAMP formation, CHO cells expressing human CB2, read-out: Agonist activity (nM) CB2) [nM]
CCCCC(CC(=O)O)NC(=O)c1cc2c(n(CC3CCCCC3)c1=O)CCCCCC2 (stereo not drawn) [Compound X-67]	79	> 2000	96	> 2000	40									
CC[C@@H](C)[C@H](NC(=O)c1cc(C)c(C)n(CC2CCCCC2)c1=O)C(=O)OC [Compound I-089]			< 2		< 2	65	< 2	< 2						
CC(C)(NC(=O)c1cc2c(n(CC3CCCCC3)c1=O)CCCCCC2)C(=O)NNC(=O)c1cccnc1 [Compound I-556]			< 2		3.5		8.1	357	76					
CC(C)(NC(=O)c1cc2c(n(CC3CCCCC3)c1=O)CCCCCC2)C(=O)NCC(N)=O [Compound I-054]		11			15			51		63	6			
CC(C)NC(=O)N1CCN(C(=O)C(C)(C)NC(=O)c2cc3c(n(CC4CCCCC4)c2=O)CCCCCC3)CC1 [Compound I-604]			2.5		4.8		16	55	95					
CC(C)(NC(=O)c1cc2c(n(CC3CCCCC3)c1=O)CCCCCC2)C(=O)Nc1ccc(NS(C)(=O)=O)cc1 [Compound I-533]			< 2		< 2		21	> 2000	73					
CC(C)(NC(=O)c1cc2c(n(CC3CCCCC3)c1=O)CCCCCC2)C(=O)N1CCC(C(=O)N2CCCCC2)CC1 [Compound I-601]	67		3.9		6.3		47	186						
O=C(NC(C(=O)O)C(F)(F)F)c1cc2c(n(CC3CCCCC3)c1=O)CCCCCC2 (stereo not drawn) [Compound X-229]		482	12	369	27	105								
CC(C)(NC(=O)c1cc2c(n(CC3CCCCC3)c1=O)CCCCCC2)C(=O)N1CCC(NS(C)(=O)=O)CC1 [Compound I-572]	97	39			2.4			397			4.4			
O=C(O)Cc1csc(NC(=O)c2cc3c(n(CC4CCCCC4)c2=O)CCCCCC3)n1 [IV-023]		425									22	116	398	11
CC(C)C[C@@H](CC(=O)O)NC(=O)c1cc2c(n(Cc3ccc(F)cc3)c1=O)CCCCCC2 [II-078]		1450	27	252	< 2				94					
CC(C)CCn1c2c(cc(C(=O)N[C@@H](C(=O)O)c3ccccc3)c1=O)CCCCCC2 [Compound I-424]		357	3	> 2000	5.9				62					
CCS(=O)(=O)NNC(=O)C(C)(C)NC(=O)c1cc2c(n(CC3CCCCC3)c1=O)CCCCCC2 [Compound I-596]		341	22	312	30				60					
CCCC(CC(=O)O)NC(=O)c1cc2c(n(CC3CCCCC3)c1=O)CCCCCC2 (stereo not drawn) [Compound X-66]	71	> 2000	92	549	50									
O=C(O)Cc1nsc(NC(=O)c2cc3c(n(CC4CCCCC4)c2=O)CCCCCC3)n1 [Compound X-21]	106	1770	3.3	> 2000	30									
